These results are taken from ChEMBL document CHEMBL1142829, “Structure-antioxidant activity relationships of flavonoids isolated from the resinous exudate of Heliotropium sinuatum” (Bioorg Med Chem Lett, 2005).

The structures appear in SMILES notation.

The assay is described as follows: Ratio between antioxidant activities determined employing ABTS and DPPH methods.
`COc1cc(O)cc2oc(-c3ccccc3)c(OC(C)=O)c(=O)c12`: the Ratio is 160.
As for `COc1cc(O)cc2oc(-c3ccccc3)cc(=O)c12`, the figure is 170; as for `COc1cc(OC)c2c(=O)c(OC)c(-c3ccc(O)c(OC)c3)oc2c1`, 125; as for `COc1ccc(-c2cc(=O)c3c(OC)cc(O)cc3o2)cc1O`, 126.
As for `COc1cc(O)c2c(=O)cc(-c3ccc(O)c(O)c3)oc2c1`, the figure is 3.4.
As for `COc1cc(O)cc2oc(-c3ccc(O)cc3)cc(=O)c12`, the figure is 143.
In the case of `COc1c(-c2ccccc2)oc2cc(O)cc(OC)c2c1=O`, the Ratio is 6.8.
The result for `COc1cc(-c2oc3cc(O)cc(OC)c3c(=O)c2OC)ccc1O` reads 6.6.
